Results as given in ChEMBL document CHEMBL1201862, “PubChem BioAssay data set” (2004).
The source made the active and inactive calls. Rule as the data show it, for most assays here: actives have a measured EC50 and inactives only a lower limit.

What was measured:
[1] = target: Luciferin 4-monooxygenase (Photinus pyralis, UniProt P08659); test: firefly luciferase enzyme inhibitors, dose response, biochemical, luminescence (AID 1891)
[2] = Luminescence Cell-Based Dose Confirmation HTS to Identify Inhibitors of Platelet Dense Granule Release. [Related pubchem assays: 1663 (Primary HTS), 1678 (Summary of Project)]; assay type: functional
[3] = target: T1, Corticotropin-releasing factor receptor 2/Corticotropin-releasing factor-binding protein (Homo sapiens, UniProt P24387+Q13324); test: Dose Response confirmation of uHTS hits for small molecule antagonists of the CRF-binding protein and CRF-R2 receptor complex.; assay type: functional; details: read-out: IC50_Mean
T1 sequence (Q13324 whole entry): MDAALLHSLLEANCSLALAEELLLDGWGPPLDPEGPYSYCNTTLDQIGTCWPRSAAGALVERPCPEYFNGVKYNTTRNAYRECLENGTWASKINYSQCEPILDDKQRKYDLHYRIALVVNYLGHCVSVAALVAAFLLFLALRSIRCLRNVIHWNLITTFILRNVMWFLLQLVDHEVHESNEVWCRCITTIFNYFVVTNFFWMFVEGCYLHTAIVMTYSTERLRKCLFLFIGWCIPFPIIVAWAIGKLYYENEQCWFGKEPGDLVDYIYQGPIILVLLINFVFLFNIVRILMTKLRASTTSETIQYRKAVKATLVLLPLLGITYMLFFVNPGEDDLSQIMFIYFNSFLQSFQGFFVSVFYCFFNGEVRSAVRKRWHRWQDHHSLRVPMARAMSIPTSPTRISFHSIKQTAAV
T1 sequence (P24387 whole entry): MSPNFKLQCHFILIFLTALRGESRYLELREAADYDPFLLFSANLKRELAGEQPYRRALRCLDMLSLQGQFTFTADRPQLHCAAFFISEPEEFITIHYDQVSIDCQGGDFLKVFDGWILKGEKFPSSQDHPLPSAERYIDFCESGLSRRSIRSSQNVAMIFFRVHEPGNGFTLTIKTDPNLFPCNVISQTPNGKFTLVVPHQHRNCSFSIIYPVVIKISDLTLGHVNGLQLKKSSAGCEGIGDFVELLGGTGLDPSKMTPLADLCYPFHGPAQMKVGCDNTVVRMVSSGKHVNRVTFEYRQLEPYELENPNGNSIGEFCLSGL

[4] = target: T1, Corticotropin-releasing factor receptor 2/Corticotropin-releasing factor-binding protein; test: activators of CRF receptor 2 with binding protein – uHTS hits, confirmation (AID 602473); assay type: functional; details: read-out: EC50_Mean
[5] = target: T2, Heat shock factor protein 1 (Mus musculus, UniProt P38532); test: HSF1 potentiators in luciferase reporter cells, confirmation, cell-based, NIH3T3, luminescence, dose retest (AID 435004); assay type: functional;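 also: stress induced by proteasome inhibitor MG132 added 30 min after compound; luciferase reporter driven by HSF1 response element in NIH3T3 cells; actives raise luminescence as potentiators of the MG132 stress response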
T2 sequence (P38532 whole entry): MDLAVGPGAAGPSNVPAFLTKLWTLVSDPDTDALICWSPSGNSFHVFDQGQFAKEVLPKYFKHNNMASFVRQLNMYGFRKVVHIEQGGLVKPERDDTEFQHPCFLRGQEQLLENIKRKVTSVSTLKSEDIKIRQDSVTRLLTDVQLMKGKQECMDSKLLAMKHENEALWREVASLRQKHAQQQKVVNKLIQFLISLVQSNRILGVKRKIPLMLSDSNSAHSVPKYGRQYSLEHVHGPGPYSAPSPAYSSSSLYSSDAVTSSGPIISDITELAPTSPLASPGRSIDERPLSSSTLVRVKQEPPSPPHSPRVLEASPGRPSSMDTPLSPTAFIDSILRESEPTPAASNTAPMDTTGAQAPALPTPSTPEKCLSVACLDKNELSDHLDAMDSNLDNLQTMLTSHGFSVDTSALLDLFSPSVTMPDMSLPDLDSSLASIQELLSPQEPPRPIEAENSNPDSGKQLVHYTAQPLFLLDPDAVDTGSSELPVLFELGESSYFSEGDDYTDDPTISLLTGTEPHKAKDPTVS

[6] = inhibitors of firefly luciferase expression or activity, dose response, H4 neuroglioma cells, luminescence (AID 1990); assay type: functional, cell-based
[7] = system: Streptococcus sp. 'group A'; test: growth inhibition of control SK(-) GAS strain, dose response, counter-screen for streptokinase expression inhibitor project, luminescence, kanamycin, BacTiterGlo, confirmation (AID 1900); assay type: functional, organism-based
[8] = Luminescence Cell-Based Dose Response HTS to Identify Inhibitors of 5'UTR Stem-Loop Driven Prion Protein mRNA Translation in H4 Neuroglioblastoma Cells. [Related pubchem assays: 1827 (Project Summary), 1813 (Primary HTS)]; assay type: functional
[9] = inhibitors of SNCA 5'UTR-driven reporter translation, confirmation, H4 neuroglioma cells, luminescence (AID 1988); assay type: functional, cell-based
Streptococcus = test: Group A Streptococcus viability loss, dose response, counter-screen for streptokinase expression inhibitor project, luminescence, BacTiterGlo (AID 1915); assay type: functional, organism-based;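 also: potency for reduction of bacterial viability or growth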
[10] = off-target signal loss in HeLa-CEM21 co-culture – HeLa F-luc CTL cells, cherry-picked, counter-screen for HIV-1 Env fusion inhibitor project, dose response (AID 652040); assay type: functional, cell-based;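 also: potency for signal decrease marking cytotoxic or nonspecific inhibition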
[11] = HEp-2 cell cytotoxicity, dose response, cytotoxicity control for RSV inhibitor project, HTS (AID 2410); assay type: functional; details: human respiratory syncytial virus
[12] = target: T2, Heat shock factor protein 1; test: inhibition of MG132-induced HSE-luciferase signal, confirmation, cell-based, NIH3T3, luminescence, dose retest (AID 2382); assay type: functional;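 also: NIH3T3 fibroblasts with HSF1-driven luciferase reporter stressed by proteasome inhibitor MG132; luminescence from HSF1-driven luciferase expression after 8 hours of MG132 stress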
[13] = inhibitors of clade B AD8 Env fusion, dose response, cell-based, cherry-pick (AID 652062); assay type: functional;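 also: luciferase signal from cell-cell fusion driven by HIV-1 clade B AD8 Env; potency is for inhibitors of fusion seen as a drop in luminescence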
[14] = Luminescence Cell-Based Dose Retest to Confirm Inhibitors of Cancer Stem Cells. [Related pubchem assays (depositor defined):AID2717, AID2721]; assay type: functional; details: Homo sapiens
Cytochrome P450 2C9 = Cytochrome P450 2C9 (Homo sapiens, UniProt P11712)
[15] = target: T3, Rac GTPase-activating protein 1 (Homo sapiens, UniProt Q9H0H5); test: MgcRacGAP GTPase-activating activity inhibitors, confirmation, biochemical, ADP Hunter fluorescence, primary and confirmatory (AID 624330); assay type: functional
T3 sequence (Q9H0H5 whole entry): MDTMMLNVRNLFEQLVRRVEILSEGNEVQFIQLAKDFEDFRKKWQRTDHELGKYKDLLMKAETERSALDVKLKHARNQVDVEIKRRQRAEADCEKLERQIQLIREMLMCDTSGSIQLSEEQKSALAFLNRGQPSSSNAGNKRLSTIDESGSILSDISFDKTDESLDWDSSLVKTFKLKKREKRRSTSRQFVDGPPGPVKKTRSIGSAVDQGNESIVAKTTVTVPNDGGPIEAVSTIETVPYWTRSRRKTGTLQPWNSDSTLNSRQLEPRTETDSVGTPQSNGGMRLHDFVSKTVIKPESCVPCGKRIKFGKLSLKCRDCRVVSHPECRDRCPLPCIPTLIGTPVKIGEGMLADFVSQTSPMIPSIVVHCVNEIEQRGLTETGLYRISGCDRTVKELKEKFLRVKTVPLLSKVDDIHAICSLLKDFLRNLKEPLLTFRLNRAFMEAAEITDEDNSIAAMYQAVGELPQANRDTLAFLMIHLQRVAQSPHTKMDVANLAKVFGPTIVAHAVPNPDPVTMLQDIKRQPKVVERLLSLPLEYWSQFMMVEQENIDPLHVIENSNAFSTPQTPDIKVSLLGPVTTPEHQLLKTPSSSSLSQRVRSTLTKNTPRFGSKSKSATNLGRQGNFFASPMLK

Luciferin 4-monooxygenase, sequence (P08659 whole entry): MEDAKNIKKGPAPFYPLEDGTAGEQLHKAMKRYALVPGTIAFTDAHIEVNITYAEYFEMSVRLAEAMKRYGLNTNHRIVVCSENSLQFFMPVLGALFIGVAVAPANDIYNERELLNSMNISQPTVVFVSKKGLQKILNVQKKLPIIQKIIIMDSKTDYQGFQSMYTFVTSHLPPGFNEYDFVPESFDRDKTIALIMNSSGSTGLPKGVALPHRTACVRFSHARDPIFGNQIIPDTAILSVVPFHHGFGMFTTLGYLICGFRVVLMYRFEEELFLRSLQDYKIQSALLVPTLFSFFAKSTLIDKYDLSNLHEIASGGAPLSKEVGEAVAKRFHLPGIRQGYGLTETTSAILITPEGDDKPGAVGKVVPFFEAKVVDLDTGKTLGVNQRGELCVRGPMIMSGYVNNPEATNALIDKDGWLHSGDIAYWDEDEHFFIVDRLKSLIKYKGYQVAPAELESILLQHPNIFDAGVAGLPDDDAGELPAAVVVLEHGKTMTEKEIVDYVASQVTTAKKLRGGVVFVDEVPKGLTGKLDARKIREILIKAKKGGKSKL
Cytochrome P450 2C9, sequence (P11712 whole entry): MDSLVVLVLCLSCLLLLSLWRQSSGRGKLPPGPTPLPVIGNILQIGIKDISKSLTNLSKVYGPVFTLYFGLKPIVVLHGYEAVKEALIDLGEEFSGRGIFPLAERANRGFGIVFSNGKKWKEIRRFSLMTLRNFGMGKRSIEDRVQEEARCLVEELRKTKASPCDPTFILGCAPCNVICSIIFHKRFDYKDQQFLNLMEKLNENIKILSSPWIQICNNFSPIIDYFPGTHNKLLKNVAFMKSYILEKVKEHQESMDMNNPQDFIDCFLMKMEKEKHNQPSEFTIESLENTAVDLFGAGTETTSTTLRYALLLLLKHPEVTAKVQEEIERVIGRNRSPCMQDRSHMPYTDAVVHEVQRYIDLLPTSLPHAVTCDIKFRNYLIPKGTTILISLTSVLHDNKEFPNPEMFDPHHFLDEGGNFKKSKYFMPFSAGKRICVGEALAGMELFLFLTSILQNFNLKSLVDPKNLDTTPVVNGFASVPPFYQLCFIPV

## Cc1ccsc1/C=N/N1CCN(C2c3ccccc3-c3ccccc32)CC1
[1]
  EC50: > 112 µM (not active)
[2]
  EC50: > 112 µM (not active)

## CC1=C(C(=O)N(C(C)C)C(C)C)CC(CC(=O)NC2CCCCC2)C(=O)N1Cc1ccccc1 (stereo not drawn)
[3]
  IC50: > 47.1 µM (inactive)
[4]
  EC50: > 53 µM (inactive)

## COc1cc2nc(S)nc(NCc3ccc(Cl)cc3)c2cc1OC
[5]
  EC50: > 260 µM (inactive)

## O=Nc1c(-c2ccccc2)[nH]n(-c2ccccc2)c1=O
[5]
  EC50: 3.87 µM (active)

## Cc1cccc(-c2cc(C(=O)Nc3ccncc3)c3ccccc3n2)c1
[5]
  EC50: 43.1 µM (active)

## O=C(NCc1ccccc1)c1ccc(Cl)cc1
[3]
  IC50: > 47.1 µM (inactive)
[4]
  EC50: > 53 µM (inactive)

## CC(C)CC(=O)Nc1ccc(C(=O)NNC(=S)NC(=O)C2CCCCC2)cc1
[6]
  EC50: 12.5 µM (active)
[7]
  EC50: 1.65 µM (active)
[8]
  EC50: 14.8 µM (active)
[9]
  EC50: 12.4 µM (active)
Streptococcus
  EC50: 5.23 µM (active)

## Cc1cc(Cl)ccc1OCC(=O)NNC(=O)C1CSC2(C)CCC(=O)N12 (stereo not drawn)
[10]
  AC50: 39.8 µM (active)

## Cc1onc(C(=O)Nc2ccc3c(c2)OCO3)c1[N+](=O)[O-]
[1]
  EC50: > 112 µM (not active)
[2]
  EC50: > 112 µM (not active)

## O=C1NC(c2ccccc2)=C(c2nc3ccccc3s2)C(c2ccc(F)cc2)N1 (stereo not drawn)
[11]
  CC50: 10.4 µM (active)
[6]
  EC50: > 60 µM (not active)
[8]
  EC50: > 120 µM (not active)
[9]
  EC50: 20.8 µM (active)

## Cc1ccc(CC(=O)NCCCc2ccccc2)cc1
[3]
  IC50: > 47.1 µM (inactive)
[4]
  EC50: > 53 µM (inactive)

## CC(C)NC(=O)NC(=O)COc1ccc(Br)cc1Br
[5]
  EC50: > 260 µM (inactive)

## Cc1ccnc(NS(=O)(=O)c2ccc(NC(=O)COc3ccccc3)cc2)n1
[6]
  EC50: > 120 µM (not active)
[8]
  EC50: > 120 µM (not active)
[12]
  EC50: > 195 µM (not active)
[9]
  EC50: > 120 µM (not active)

## COc1cccc(S(=O)(=O)N2CC3(CN(C(=O)Nc4cccc(F)c4)[C@H](CO)c4[nH]c5cc(OC)ccc5c43)C2)c1
[13]
  AC50: 22 µM (active)

## Nn1cnnc1N/N=C/c1cc([N+](=O)[O-])c(Cl)cc1Cl
[5]
  EC50: > 260 µM (inactive)

## Cc1cc(C(=O)NNC(=O)C(CCC(N)=O)NS(=O)(=O)c2ccc(Cl)cc2)c(C)o1 (stereo not drawn)
[3]
  IC50: > 47.1 µM (inactive)
[4]
  EC50: > 53 µM (inactive)

## COc1cccc(CNc2ccc(Br)cn2)c1O
[5]
  EC50: 34.1 µM (active)

## Oc1ccc(-c2cnc(-c3ccc(O)cc3)nc2)cc1
[14]
  AC50: 0.342 µM (active)
[5]
  EC50: 4.99 µM (active)

## O=C1CC2CS(=O)(=O)CC2N1c1ccc(Oc2ccccc2)cc1 (stereo not drawn)
[3]
  IC50: > 47.1 µM (inactive)
[4]
  EC50: > 53 µM (inactive)

## Cn1c(NNC(=O)c2ccccc2F)cc(=O)n(C)c1=O
[6]
  EC50: > 120 µM (not active)
[8]
  EC50: > 120 µM (not active)
[9]
  EC50: > 120 µM (not active)

## COc1cc(C2C(C#N)=C(N)N(Nc3ccccc3)C3=C2C(=O)CC(C)(C)C3)ccc1OCc1ccccc1 (stereo not drawn)
[6]
  EC50: 13.4 µM (active)
[8]
  EC50: 18.7 µM (active)
[9]
  EC50: > 120 µM (not active)
Cytochrome P450 2C9
  AC50: 0.794 µM (inconclusive)

## CCc1ccccc1/N=C/c1c(C)c(C#N)c2nc3ccccc3n2c1O
[4]
  EC50: 4.75 µM (active)

## COc1ccc(NC(=O)CSc2nnc(Cn3cnc([N+](=O)[O-])n3)n2C)cc1
[5]
  EC50: > 260 µM (inactive)

## Cc1c(C#N)c(N)nc2c3c(sc12)NC(=O)CC3c1ccc(F)cc1 (stereo not drawn)
[1]
  EC50: > 112 µM (not active)
[2]
  EC50: > 112 µM (not active)

## O=C1c2ccccc2C(=O)c2c1cccc2-n1nnc2ccccc21
[6]
  EC50: 16.3 µM (active)
[8]
  EC50: > 120 µM (not active)
[9]
  EC50: > 120 µM (not active)

## O=S(=O)(Nc1cccc(-c2ccc3nncn3n2)c1)c1cc(F)ccc1F
[1]
  EC50: > 112 µM (not active)
[2]
  EC50: > 112 µM (not active)

## COc1cccc(CNC(=O)c2nnn(CC(=O)Nc3ccc(Br)cc3)c2N)c1
[6]
  EC50: 46.9 µM (active)
[8]
  EC50: 103 µM (active)
[9]
  EC50: 11 µM (active)

## Cc1ccc(NC(=O)N2CCCC2C(=O)Nc2c(C)cc(C)cc2C)cc1 (stereo not drawn)
[5]
  EC50: > 260 µM (inactive)

## CCN(CC)S(=O)(=O)c1cccc(NC(=O)COC(=O)CCC(=O)c2ccc(F)cc2)c1
[1]
  EC50: > 112 µM (not active)
[2]
  EC50: > 112 µM (not active)

## Oc1c(Br)cc(-c2ccccc2)cc1Br
[3]
  IC50: 10.1 µM (active)
[4]
  EC50: > 53 µM (inactive)
[15]
  IC50: 85 µM (active)

## CC(Nc1ccc([N+](=O)[O-])cc1[N+](=O)[O-])c1ccccc1 (stereo not drawn)
[3]
  IC50: 34.7 µM (active)
[4]
  EC50: > 53 µM (inactive)

## COC(=O)c1ccc(Oc2nc(C)cc(Oc3ccccc3)n2)cc1
[1]
  EC50: > 112 µM (not active)
[2]
  EC50: > 112 µM (not active)

## COC(=O)c1sccc1NC(=O)Nc1ccc(OC)cc1
[1]
  EC50: 0.358 µM (active)
[2]
  EC50: 1.33 µM (active)

## CCCCOC(=O)N/N=C/C=C/c1ccccc1
[1]
  EC50: > 112 µM (not active)
[2]
  EC50: > 112 µM (not active)

## CCOc1ccc(C2C(C#N)=C(N)N3C(=C2C#N)Sc2ccccc23)cc1 (stereo not drawn)
[4]
  EC50: 8.06 µM (active)

## CC1(c2ccc(OC(F)F)cc2)NC(=O)N(CC(=O)Nc2cccnc2Cl)C1=O (stereo not drawn)
[4]
  EC50: 15 µM (active)

## O=C(NCc1nnc(SCc2ccccc2)n1-c1ccccc1)C12CC3CC(CC(C3)C1)C2
[5]
  EC50: > 260 µM (inactive)
